Laboratory results as given in patent US10669284B2, “Fused thiazolopyrimidine derivatives as MNKS inhibitors” (LIFEARC, priority 2015, dated 2020).

What was measured:
[1] = molecular target: T1, TBK1 (Homo sapiens, UniProt Q9UHD2); assay: Kinase selectivity screen TBK1; conditions: read-out: % inhibition of TBK1
T1 sequence (Q9UHD2 1-729): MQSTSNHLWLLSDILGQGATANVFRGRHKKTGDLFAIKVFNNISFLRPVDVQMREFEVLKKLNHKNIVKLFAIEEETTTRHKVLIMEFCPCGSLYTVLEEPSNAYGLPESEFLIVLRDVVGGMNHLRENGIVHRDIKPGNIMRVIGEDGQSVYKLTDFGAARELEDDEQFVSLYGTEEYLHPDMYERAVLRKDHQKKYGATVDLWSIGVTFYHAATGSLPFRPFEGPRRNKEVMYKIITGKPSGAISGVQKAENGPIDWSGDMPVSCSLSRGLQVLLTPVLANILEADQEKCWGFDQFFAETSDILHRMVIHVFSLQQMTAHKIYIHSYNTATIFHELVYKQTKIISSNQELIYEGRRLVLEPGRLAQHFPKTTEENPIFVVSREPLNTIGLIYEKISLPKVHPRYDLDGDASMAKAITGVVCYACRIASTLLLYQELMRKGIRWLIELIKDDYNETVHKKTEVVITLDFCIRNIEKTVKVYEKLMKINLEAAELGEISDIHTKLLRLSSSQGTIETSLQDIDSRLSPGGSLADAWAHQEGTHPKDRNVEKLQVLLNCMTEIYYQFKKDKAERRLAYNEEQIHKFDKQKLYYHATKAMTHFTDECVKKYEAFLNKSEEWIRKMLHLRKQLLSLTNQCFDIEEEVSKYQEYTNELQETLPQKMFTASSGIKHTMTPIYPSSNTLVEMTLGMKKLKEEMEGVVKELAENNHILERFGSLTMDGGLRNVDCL

[2] = molecular target: YES1 (Homo sapiens, UniProt P07947); assay: Kinase selectivity screen YES1; conditions: read-out: % inhibition of YES1
Chain of YES1 (P07947 whole entry, species assumed): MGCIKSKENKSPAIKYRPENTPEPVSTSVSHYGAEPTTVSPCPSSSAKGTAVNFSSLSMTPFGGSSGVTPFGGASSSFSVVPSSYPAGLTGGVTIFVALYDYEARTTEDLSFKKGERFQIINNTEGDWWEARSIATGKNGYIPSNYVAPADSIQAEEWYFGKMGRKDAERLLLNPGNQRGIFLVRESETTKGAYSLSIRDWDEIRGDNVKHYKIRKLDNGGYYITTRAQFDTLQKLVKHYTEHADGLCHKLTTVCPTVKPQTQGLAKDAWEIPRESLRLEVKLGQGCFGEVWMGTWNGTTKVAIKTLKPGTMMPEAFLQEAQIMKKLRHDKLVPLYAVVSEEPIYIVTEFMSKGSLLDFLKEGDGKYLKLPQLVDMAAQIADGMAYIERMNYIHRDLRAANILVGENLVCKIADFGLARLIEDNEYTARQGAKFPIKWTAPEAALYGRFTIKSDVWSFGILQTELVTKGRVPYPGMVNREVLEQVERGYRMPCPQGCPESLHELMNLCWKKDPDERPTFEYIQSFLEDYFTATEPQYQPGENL

[3] = molecular target: ABL1 (Homo sapiens, UniProt P00519); assay: Kinase selectivity screen ABL1; conditions: read-out: % inhibition of ABL1
Chain of ABL1 (P00519 whole entry, species assumed): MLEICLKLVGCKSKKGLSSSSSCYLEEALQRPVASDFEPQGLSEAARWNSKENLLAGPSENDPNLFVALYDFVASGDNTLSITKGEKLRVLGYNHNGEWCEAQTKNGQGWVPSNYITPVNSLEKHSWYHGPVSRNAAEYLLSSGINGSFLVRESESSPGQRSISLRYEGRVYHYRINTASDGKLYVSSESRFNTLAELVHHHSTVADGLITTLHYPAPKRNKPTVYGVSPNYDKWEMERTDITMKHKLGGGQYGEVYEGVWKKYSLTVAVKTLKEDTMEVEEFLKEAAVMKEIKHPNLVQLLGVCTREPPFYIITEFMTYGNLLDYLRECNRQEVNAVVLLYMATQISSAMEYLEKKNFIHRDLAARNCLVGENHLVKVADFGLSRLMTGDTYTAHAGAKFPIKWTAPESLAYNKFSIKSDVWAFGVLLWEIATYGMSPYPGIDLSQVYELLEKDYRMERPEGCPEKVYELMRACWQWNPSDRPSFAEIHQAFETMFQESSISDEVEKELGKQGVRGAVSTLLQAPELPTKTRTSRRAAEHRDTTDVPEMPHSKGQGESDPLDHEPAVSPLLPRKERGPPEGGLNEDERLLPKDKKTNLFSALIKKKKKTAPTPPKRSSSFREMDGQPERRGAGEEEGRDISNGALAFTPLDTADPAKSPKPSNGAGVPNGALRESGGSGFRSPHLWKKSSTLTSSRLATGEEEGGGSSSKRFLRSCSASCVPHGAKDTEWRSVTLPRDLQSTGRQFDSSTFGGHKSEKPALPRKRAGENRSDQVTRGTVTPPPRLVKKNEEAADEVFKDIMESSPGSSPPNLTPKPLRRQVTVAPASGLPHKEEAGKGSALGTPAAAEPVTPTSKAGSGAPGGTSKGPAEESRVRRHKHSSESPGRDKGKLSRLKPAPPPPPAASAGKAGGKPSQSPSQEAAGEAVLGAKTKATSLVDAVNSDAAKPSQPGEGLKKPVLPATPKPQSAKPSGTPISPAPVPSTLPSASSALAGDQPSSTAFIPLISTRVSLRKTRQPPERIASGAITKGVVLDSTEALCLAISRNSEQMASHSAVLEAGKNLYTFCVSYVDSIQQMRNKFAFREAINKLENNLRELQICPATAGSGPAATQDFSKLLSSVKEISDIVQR

[4] = molecular target: EPHA5 (Homo sapiens, UniProt P54756); assay: Kinase selectivity screen EPHA5; conditions: read-out: % inhibition of EPHA5
Chain of EPHA5 (P54756 25-1037, species assumed): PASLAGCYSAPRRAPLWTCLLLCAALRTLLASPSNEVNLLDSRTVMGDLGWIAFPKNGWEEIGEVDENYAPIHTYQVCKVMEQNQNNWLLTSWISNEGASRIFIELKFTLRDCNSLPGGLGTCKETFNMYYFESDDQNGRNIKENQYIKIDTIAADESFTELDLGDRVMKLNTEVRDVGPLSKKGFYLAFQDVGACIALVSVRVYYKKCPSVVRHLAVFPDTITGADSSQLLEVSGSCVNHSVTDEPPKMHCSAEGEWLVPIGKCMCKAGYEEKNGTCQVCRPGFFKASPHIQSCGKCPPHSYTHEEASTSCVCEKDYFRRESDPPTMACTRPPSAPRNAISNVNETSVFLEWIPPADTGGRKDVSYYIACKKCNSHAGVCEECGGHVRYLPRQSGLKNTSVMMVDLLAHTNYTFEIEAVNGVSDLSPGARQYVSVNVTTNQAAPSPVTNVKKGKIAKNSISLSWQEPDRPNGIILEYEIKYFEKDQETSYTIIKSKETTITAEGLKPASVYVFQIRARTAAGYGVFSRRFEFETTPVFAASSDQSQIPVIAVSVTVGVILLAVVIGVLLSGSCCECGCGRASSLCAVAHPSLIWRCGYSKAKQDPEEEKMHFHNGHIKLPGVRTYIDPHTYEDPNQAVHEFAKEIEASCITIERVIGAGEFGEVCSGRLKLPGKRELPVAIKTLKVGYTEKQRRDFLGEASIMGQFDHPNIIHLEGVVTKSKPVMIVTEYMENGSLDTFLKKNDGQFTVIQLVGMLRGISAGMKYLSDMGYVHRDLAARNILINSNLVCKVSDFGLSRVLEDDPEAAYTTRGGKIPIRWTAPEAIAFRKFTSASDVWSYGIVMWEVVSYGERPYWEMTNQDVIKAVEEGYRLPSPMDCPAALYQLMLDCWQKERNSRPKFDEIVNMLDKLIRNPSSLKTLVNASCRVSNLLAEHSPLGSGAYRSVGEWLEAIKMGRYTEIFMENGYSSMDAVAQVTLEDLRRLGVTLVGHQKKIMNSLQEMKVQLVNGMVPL

[5] = molecular target: T2, DYRK2 (Homo sapiens, UniProt Q92630); assay: Kinase selectivity screen DYRK2; conditions: read-out: % inhibition of DYRK2
T2 sequence (Q92630 1-601): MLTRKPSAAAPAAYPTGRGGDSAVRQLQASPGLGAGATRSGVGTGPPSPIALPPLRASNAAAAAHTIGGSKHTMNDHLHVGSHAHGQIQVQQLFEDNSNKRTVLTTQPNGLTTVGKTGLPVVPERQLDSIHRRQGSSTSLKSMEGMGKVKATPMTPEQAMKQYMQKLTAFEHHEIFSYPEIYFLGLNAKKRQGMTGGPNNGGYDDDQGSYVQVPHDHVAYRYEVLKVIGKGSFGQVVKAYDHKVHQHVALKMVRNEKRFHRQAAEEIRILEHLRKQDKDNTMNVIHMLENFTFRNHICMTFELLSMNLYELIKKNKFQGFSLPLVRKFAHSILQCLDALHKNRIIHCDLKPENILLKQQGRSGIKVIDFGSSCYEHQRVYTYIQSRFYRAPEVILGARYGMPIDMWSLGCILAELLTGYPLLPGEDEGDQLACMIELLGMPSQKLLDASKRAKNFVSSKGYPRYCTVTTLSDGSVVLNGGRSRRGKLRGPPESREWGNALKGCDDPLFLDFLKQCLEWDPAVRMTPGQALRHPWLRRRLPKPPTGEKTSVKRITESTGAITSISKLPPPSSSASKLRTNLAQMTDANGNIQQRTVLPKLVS

[6] = molecular target: T3, AURKC (Homo sapiens, UniProt Q9UQB9); assay: Kinase selectivity screen AURKC; conditions: read-out: % inhibition of AURKC
T3 sequence (Q9UQB9 1-309): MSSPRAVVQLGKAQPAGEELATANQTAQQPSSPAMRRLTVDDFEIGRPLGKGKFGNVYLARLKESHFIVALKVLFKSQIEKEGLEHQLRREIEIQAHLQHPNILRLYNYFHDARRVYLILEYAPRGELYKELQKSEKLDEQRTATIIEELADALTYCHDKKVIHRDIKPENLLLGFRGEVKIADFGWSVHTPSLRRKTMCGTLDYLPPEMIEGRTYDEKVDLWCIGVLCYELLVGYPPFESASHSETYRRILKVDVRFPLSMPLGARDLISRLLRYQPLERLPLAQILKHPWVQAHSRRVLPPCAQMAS

[7] = molecular target: T4, STK17A (Homo sapiens, UniProt Q9UEE5); assay: Kinase selectivity screen STK17A; conditions: read-out: % inhibition of STK17A
T4 sequence (Q9UEE5 1-414): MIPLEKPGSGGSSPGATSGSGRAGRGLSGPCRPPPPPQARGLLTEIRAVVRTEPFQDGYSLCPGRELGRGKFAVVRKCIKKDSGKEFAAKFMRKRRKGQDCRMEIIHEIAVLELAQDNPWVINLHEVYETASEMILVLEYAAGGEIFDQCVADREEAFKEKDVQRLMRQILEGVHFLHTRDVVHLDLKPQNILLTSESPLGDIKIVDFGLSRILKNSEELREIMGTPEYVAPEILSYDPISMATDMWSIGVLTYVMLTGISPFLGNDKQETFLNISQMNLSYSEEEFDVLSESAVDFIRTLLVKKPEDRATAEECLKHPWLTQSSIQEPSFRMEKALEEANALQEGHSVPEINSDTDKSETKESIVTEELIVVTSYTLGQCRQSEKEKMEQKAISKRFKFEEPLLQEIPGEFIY

[8] = molecular target: PIP5K1A (Homo sapiens, UniProt Q99755); assay: Kinase selectivity screen PIP5K1A; conditions: read-out: % inhibition of PIP5K1A
Chain of PIP5K1A (Q99755 whole entry, species assumed): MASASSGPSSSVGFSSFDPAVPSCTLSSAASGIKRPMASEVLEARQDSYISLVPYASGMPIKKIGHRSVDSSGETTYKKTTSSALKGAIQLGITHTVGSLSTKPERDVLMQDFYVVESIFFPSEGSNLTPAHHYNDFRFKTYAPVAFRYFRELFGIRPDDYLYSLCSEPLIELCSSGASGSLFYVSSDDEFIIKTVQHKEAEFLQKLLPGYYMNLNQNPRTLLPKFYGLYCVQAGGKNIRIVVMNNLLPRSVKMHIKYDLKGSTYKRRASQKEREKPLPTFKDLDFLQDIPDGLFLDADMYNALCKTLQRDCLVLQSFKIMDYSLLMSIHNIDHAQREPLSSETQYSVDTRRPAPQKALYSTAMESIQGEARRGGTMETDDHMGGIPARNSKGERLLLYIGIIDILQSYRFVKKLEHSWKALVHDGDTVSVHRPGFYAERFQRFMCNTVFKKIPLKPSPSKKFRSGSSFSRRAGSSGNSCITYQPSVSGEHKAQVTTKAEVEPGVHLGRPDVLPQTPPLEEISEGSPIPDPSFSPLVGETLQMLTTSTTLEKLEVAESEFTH

CC(C)Oc1cc(F)ccc1Nc1ncnc2sc(C(=O)NCC3CCNCC3)nc12 [Example 10, 7-(4-fluoro-2-isopropoxy-anilino)-N-(4-piperidylmethyl)thiazolo[5,4-d]pyrimidine-2-carboxamide]
inhibition at 1 µM [1]: 14% | inhibition at 1 µM [2]: 4% | inhibition at 1 µM [3]: 4% | inhibition at 1 µM [4]: 11% | inhibition at 1 µM [5]: 7% | inhibition at 1 µM [6]: 14% | inhibition at 1 µM [7]: 2% | inhibition at 1 µM [8]: 2%

CN(C)CCCNC(=O)c1nc2c(N3CCc4cc(F)ccc43)ncnc2s1 [Example 64, N-[3-(dimethylamino)propyl]-7-(5-fluoroindolin-1-yl)thiazolo[5,4-d]pyrimidine-2-carboxamide]
inhibition at 1 µM [1]: 7% | inhibition at 1 µM [2]: 4% | inhibition at 1 µM [3]: 4% | inhibition at 1 µM [4]: 0% | inhibition at 1 µM [5]: 44% | inhibition at 1 µM [6]: 15% | inhibition at 1 µM [7]: 70% | inhibition at 1 µM [8]: 0%

O=C(NCC1CCNCC1)c1nc2c(N3CCc4cc(F)ccc43)ncnc2s1 [Example 58, 7-(5-fluoroindolin-1-yl)-N-(4-piperidylmethyl)thiazolo[5,4-d]pyrimidine-2-carboxamide]
inhibition at 1 µM [1]: 17% | inhibition at 1 µM [2]: 14% | inhibition at 1 µM [3]: 6% | inhibition at 1 µM [4]: 0% | inhibition at 1 µM [5]: 21% | inhibition at 1 µM [6]: 5% | inhibition at 1 µM [7]: 41% | inhibition at 1 µM [8]: 1%
